{"source": "patent US9452217B2", "about": "“Methods for potentiating immune response for the treatment of infectious diseases and cancer” (Nitor Therapeutics, priority 2013, dated 2016)", "key": {"[1]": {"system": "immune response to tetanus toxoid vaccine", "assay": "PNPi as adjuvant in tetanus toxoid vaccine efficacy study (mouse)", "assay_type": "in vivo", "details": "mice, p.o., ELISA"}, "[2]": {"system": "L. monocytogenes (ATCC Strain35152, hemolytic substrain)", "assay": "Mouse model of L. monocytogenes infection", "details": "Balb/c mice infected i.v. with 1×10^6 CFU; 30 mg/kg PO or IP, 2 mg/kg drinking water; FIGS. 7 and 9"}, "[3]": {"system": "endogenous interferon-a (IFN-a)", "details": "healthy volunteers, oral; cited from earlier work"}, "[4]": {"system": "HCV", "details": "chronically HCV infected patients; cited from earlier work"}, "[5]": {"target": "T1, human TLR4 (Homo sapiens, UniProt O00206+Q9Y6Y9)", "T1 construct": "expressed in transfected cells; host or cells: HEK293", "T1 sequence (O00206 24-839)": "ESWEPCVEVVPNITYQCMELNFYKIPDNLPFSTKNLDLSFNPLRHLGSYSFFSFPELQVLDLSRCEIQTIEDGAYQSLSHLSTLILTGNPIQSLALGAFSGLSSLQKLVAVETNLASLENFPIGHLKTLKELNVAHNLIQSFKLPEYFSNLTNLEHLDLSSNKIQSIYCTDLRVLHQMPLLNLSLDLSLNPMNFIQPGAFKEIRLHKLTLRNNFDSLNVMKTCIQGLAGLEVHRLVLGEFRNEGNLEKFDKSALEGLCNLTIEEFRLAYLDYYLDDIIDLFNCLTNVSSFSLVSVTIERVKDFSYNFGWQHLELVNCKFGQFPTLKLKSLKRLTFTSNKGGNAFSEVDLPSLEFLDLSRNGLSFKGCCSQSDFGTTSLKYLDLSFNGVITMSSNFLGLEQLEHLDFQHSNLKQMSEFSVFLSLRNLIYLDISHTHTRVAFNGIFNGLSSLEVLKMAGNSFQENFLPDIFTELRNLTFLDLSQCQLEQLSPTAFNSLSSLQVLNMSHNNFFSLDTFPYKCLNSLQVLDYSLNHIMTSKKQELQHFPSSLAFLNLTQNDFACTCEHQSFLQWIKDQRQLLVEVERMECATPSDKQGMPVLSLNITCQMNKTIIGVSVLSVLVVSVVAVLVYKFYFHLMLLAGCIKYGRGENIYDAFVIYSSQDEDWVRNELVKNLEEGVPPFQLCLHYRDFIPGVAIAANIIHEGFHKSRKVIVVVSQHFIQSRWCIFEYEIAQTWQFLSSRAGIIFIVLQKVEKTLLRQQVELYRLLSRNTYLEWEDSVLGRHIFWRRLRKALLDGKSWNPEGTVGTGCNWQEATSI", "T1 sequence (Q9Y6Y9 17-160 limits assumed)": "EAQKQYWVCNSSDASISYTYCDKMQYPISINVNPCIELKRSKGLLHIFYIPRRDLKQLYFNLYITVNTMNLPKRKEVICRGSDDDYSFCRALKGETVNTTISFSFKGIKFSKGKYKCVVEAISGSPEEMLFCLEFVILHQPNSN", "assay": "TLR ligand screening: NF-κB activation (SEAP reporter) in HEK293 cells expressing TLR4", "assay_type": "cell-based", "details": "one concentration: Guanosine 100 uM, NTR001 10 uM, Inosine 100 uM; FIG. 2", "procedure": "(§1) Method: TLR stimulation is tested by assessing NF-κB activation in HEK293 cells expressing a given TLR. The Secreted Embryonic Alkaline Phosphatase (SEAP) reporter is under the control of a promoter inducible by the transcription factor NF-κB. This reporter gene allows the monitoring of signaling through the TLR, based on the activation of NF-κB. The compounds are evaluated at one concentration and compared to control ligands. This step is performed in triplicate."}, "[6]": {"target": "T2, human TLR2 (Homo sapiens, UniProt O60603)", "T2 construct": "expressed in transfected cells; host or cells: HEK293", "T2 sequence (O60603 21-784)": "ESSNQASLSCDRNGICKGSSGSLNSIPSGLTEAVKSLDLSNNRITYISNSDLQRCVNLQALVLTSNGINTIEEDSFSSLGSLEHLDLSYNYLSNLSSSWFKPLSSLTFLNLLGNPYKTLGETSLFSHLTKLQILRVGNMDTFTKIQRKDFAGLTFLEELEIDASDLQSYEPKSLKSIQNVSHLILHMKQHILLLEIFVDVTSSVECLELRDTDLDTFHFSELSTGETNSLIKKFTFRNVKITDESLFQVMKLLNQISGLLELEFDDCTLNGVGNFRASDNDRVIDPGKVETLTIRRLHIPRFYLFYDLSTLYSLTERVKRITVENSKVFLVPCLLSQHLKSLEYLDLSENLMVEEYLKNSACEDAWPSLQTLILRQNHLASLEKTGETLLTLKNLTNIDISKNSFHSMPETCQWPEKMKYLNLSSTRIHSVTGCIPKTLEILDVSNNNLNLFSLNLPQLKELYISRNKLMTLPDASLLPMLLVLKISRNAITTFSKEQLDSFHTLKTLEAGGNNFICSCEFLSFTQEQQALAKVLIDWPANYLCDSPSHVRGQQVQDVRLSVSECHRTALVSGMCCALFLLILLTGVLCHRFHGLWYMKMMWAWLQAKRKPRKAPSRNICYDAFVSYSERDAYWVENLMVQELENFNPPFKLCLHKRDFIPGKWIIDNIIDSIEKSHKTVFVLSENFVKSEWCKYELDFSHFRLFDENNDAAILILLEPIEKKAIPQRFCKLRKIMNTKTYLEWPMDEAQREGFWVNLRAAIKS", "assay": "TLR ligand screening: NF-κB activation (SEAP reporter) in HEK293 cells expressing TLR2", "assay_type": "cell-based", "details": "one concentration: Guanosine 100 uM, NTR001 10 uM, Inosine 100 uM; FIG. 2", "procedure": "as §1"}, "[7]": {"system": "B16 tumors", "assay": "Syngeneic mouse melanoma model", "assay_type": "in vivo, C57BL/6 mice", "details": "cyclophosphamide 100 mg/kg IP single dose; FIG. 6", "procedure": "Method: Cancer cells were injected subcutaneously in right flank of each mouse, 1×10^4 cells in 0.1 ml PBS with 20% Matrigel. Treatment with the NTR001 was initiated on day 6 after injection of tumor cells. Tumor volume and survival were recorded every 3-4 days."}}, "data": [{"compound": "O=c1[nH]cnc2c(CN3C[C@H](CO)[C@@H](O)C3)c[nH]c12", "note": "[NTR002, 1,5-dihydro-7-[[(3R,4R)-3-hydroxy-4-(hydroxymethyl)pyrrolidin-1-yl]methyl]-4H-pyrrolo [3,2-d]pyrimidin-4-one]", "values": [{"measurement": "serum tetanus toxoid antibody titers compared to the vehicle treated group", "setting": "[1]; 30 mg/kg (6 days of treatment) and 60 mg/kg (3 days of treatment), day 38, FIG. 3", "result": "significantly elevated"}, {"measurement": "serum interferon-g compared to the vehicle treated group", "setting": "[1]; high dose group 60 mg/kg, day 30, FIG. 4", "result": "elevated"}, {"measurement": "weight loss", "setting": "[2]", "result": "significant decrease in weight loss"}]}, {"compound": "CC(=O)O[C@@H]1C[C@@H](CO)O[C@H]1n1c(=O)sc2cnc(N)nc21", "note": "[ANA773]", "values": [{"measurement": "induction of endogenous interferon-a", "setting": "[3]", "result": "induction of endogenous interferon-a (IFN-a) of multiple subtypes"}, {"measurement": "HCV RNA", "setting": "[4]", "result": "dose dependent reduction"}]}, {"compound": "Nc1nc2c(ncn2[C@@H]2O[C@H](CO)[C@@H](O)[C@H]2O)c(=O)[nH]1", "note": "[Guanosine]", "values": [{"measurement": "stimulatory effect on human TLR4", "setting": "[5]", "result": "significant stimulatory effect"}, {"measurement": "stimulatory effect on human TLR2", "setting": "[6]", "result": "significant stimulatory effect"}]}, {"compound": "O=P1(N(CCCl)CCCl)NCCCO1", "note": "(centres unmarked) [Cyclcophosphamide, cyclophosphamide]", "values": [{"measurement": "survival", "setting": "[7]", "result": 30, "unit": "%"}]}]}
